Source: patent publication US9375424B2, “Compounds that treat malaria and prevent malaria transmission” (The United States of America, as represented by the …, priority 2009, dated 2016)
Structures can show the parent of a compound that is named as a salt. Where two headings read alike, the source gives them in different places.

Legend:
[1] = system: P. falciparum lines; test: qHTS SYBR Green Plasmodium proliferation assay in infected erythrocytes (seven parasite lines); format: cell-based; details: Erythrocyte, read-out: IC50, inhibition of proliferation in all parasite lines
Procedure: The P. falciparum lines used in this study have been described previously (Mu J, et al. Multiple transporters associated with malaria parasite responses to chloroquine and quinine. Mol Microbiol 2003;49:977-989). […] Briefly, 3 μl culture medium was dispensed into 1536-well black clear-bottom plates (Aurora Biotechnologies) using a Multidrop Combi (Thermo Fisher Scientific Inc.); 23-nL compounds in DMSO were added by a pin tool (Kalypsys), and 5 μl of P. falciparum-infected RBCs (0.3% parasitemia, 2.5% hematocrit final concentration) were added. The plates were incubated at 37° C. in a humidified incubator in 5% CO2 for 72 h, and 2 μl lysis buffer (20 mM Tris-HCl, 10 mM EDTA, 0.16% saponin, 1.6% triton-X, 10× SYBR Green I supplied as 10,000× final concentration by Invitrogen) was added to each well. The plates were mixed for 25 sec with gentle shaking and incubated overnight at room temperature in the dark. The following morning, fluorescence intensity at 485 (14) nm excitation and 535 (25) nm emission wavelengths was measured on an En Vision (Perkin Elmer) plate reader. […] The plates were incubated at 37° C. under 5% CO2, 5% 02, and 90% N2 for 72 h, incubated for another 30 min after addition of 50 μl lysis buffer, and read in a FLUOstar OPTIMA reader (BMG Labtech). Data were analyzed using software at the NIAID Bioinformatic Resources (niaid-biocluster.niaid.nih.gov/cgi-bin/bipod2/index.cgi). Parasite proliferation was measured after 72 hr of incubation (corresponding to 1.5 generations of intra-erythrocytic parasite growth), with each compound tested at seven or eight five-fold dilutions beginning at 29 μM. […] The potencies of known antimalarial agents had similar values determined by the assay in 96-well plate format. […] Although the determined potencies of 4 were lower, the relative potency between lines sensitive to 4, HB3, 3D7, and D10 were clearly distinguished from resistant lines. […] The potencies of compounds scored as active or inconclusive in both replicates correlated well indicating good repeatability in determining IC50 values between replicates.

[2] = system: P. falciparum gametocytes; test: killing of P. falciparum gametocytes in vitro; format: cell-based, Plasmodium falciparum
[3] = system: Plasmodium yoelii nigeriensis; format: in vivo; details: for oocyst formation: mosquito feeding 1 hr after treatment (FIG. 1A), untreated control average 460 oocysts per mosquito
Procedure: Mice infected with Plasmodium yoelii nigeriensis were treated with drugs in different concentrations for various time periods and were exposed to mosquitoes. Oocysts were counted from dissected midgut 9-10 days after feeding. FIG. 1A, the number of oocysts from mosquitoes fed on mice treated with different TAA compounds for 1 hour. CAR, carbita Pentane (100 mg/kg); CHL, chlorpromazine (30 mg/kg); DEQ, dequalinium dichloride (10 mg/kg); Dox, doxipin hydrochloride (30 mg/kg); Ima, Imipramine (100 mg/kg), KET, ketotifen (100 mg/kg); Pro, protryptiline hydrochloride (10 mg/kg). FIG. 1B, the number of oocysts from mosquitoes fed on mice treated with different concentrations of ketotifen (KET) for 1 hour, compared with those treated with standard anti-malarial drugs, primaquine (PQ, 5 and 10 mg/kg), arteminisinin (ART, 5 mg/kg) and chloroquine (CQ, 10 mg/kg). FIG. 1C, the number of oocysts from mosquitoes fed on mice treated with a single dose of 0.5 mg/kg or 0.1 mg/kg of ketotifen (KET) for 1, 6 or 24 hours. FIG. 1D, the number of oocysts from mosquitoes fed on mice treated with two doses of 0.5 mg/kg or 0.1 mg/kg (filled symbol) of ketotifen (KET) for 1, 6 or 24 hours. CON, no drug control.
For testing transmission-blocking activity in vivo, CD-1 strain female mice, aged 6-8 weeks old, were infected intra-peritoneally (i.p.) with 5×106 P. yoelii nigeriensis. In a preliminary experiment, on day 3 post infection the animals were administrated i.p. a single dose of tricyclic antihistamine and antidepressants (TAA) compound or pharmaceutical-grade phosphate buffer saline (pH 7.4). Starting 1 hr after the administration of the TAA compound, the animals were anesthetized and brought into contact with a colony of Anopheles stephensimosquitoes. The mosquitoes were allowed to feed on the mice. Unfed or partially engorged mosquitoes were removed from the cages. The mosquitoes were maintained for 9-10 days 24 ±1° C. and 80-90% relative humidity. The gametocytocidal activity of the test compound was accessed on the basis of the oocyst counts in mosquitoes fed on treated animals and a control group. In subsequent experiments, the gametocytocidal action of ketotifin at different concentrations and doses was evaluated similarly. One group was given a single dose of 0.1, 0.5, 1, 5, 10, 30 or 60 mg/kg on day 3 post infection and subjected to mosquito feeding 1 hr after compound administration. Primaquine, chloroquine and arteminsin were used as reference drugs. The other group was given one dose or two doses of 0.1 or 0.5 mg/kg at 4 hr interval and subjected to mosquito feeding 1, 6 or 24 hrs after the final drug administration.

[4] = all seven parasite lines, 72 h incubation
[5] = 5 mg/kg single dose, treatment for 1 hr
[6] = two doses of 0.5 mg/kg at 4 hours interval, 24-hour treatment

Cc1cc(N)c2ccccc2[n+]1CCCCCCCCCC[n+]1c(C)cc(N)c2ccccc21 [dequalinium dichloride]
IC50 [1, 4]: < 2000 nM

CN1CCC(=C2c3ccccc3CC(=O)c3sccc32)CC1 [ketotifen]
concentration that completely kills P. falciparum gametocytes in vitro [2]: 0.5 µM | average number of oocysts per mosquito ([3]; 1 mg/kg single dose, treatment for 1 hr (FIG. 1B)): 34 oocysts per mosquito | mosquitoes that had oocysts [3, 5]: 2 of 44 | oocyst counts [3, 5]: 0.13 oocysts per mosquito | oocyst development ([3]; 5 mg/kg single dose, treatment for 1 hr (FIG. 1B)): almost completely blocked oocyst development | oocyst formation ([3]; 100 mg/kg single dose i.p.): strong reduction in oocyst formation | dose achieving similar reduction in oocyst count to primaquine, as share of the primaquine dose ([3]; relative to primaquine dose): 10% | oocyst counts ([3]; single dose 0.1 mg/kg, 24 hours prior to mosquito feeding (FIG. 1C)): 82 oocysts per mosquito | oocyst counts ([3]; single dose 0.5 mg/kg, 24 hours prior to mosquito feeding (FIG. 1C)): 12 oocysts per mosquito | oocyst counts ([3]; two doses of 0.1 mg/kg at 4 hours interval, 24-hour treatment time (FIG. 1D)): 80 oocysts per mosquito | mosquitoes that had oocysts [3, 6]: 4 of 23 | oocysts in the mosquitoes [3, 6]: almost completely eliminated oocysts | oocyst counts ([3]; two doses of 0.5 mg/kg at 4 hours interval, 24-hour treatment (FIG. 1D)): 2 oocysts per mosquito

COc1cc(NC(C)CCCN)c2ncccc2c1 (stereo not shown) [primaquine]
mosquitoes that had oocysts [3, 5]: 7 of 21 | oocyst counts [3, 5]: 6 oocysts per mosquito

CNCCCC1c2ccccc2C=Cc2ccccc21 [protryptiline hydrochloride]
oocyst formation ([3]; 10 mg/kg single dose i.p.): strong reduction in oocyst formation

CCN(CC)CCCC(C)Nc1c2ccc(Cl)cc2nc2ccc(OC)cc12 (stereo not shown) [quinacrine]
IC50 ([1]; 72 h): < 2000 nM

CC(=O)O[C@H]1C(=O)[C@@]2(C)[C@H]([C@H](OC(=O)c3ccccc3)[C@]3(O)C[C@H](OC(=O)[C@H](O)[C@@H](NC(=O)c4ccccc4)c4ccccc4)C(C)=C1C3(C)C)[C@]1(OC(C)=O)CO[C@@H]1C[C@@H]2O [taxol]
IC50 [1, 4]: < 2000 nM
